Laboratory results taken from the CheMixHub drug solubility set.

Assay: xn = mol fraction of the nth substance listed, in the solute-free solvent

Nc1cccc2ccncc12 + CO + O
solubility (g/100 g solution)
Settings | 278.15 K | 283.15 K | 288.15 K | 293.15 K | 298.15 K | 303.15 K | 308.15 K | 313.15 K | 318.15 K | 323.15 K
x2 = 0.05881 | 0.0271 | 0.0315 | 0.0363 | 0.0431 | 0.0495 | 0.0576 | 0.0677 | 0.079 | 0.0916 | 0.107
x2 = 0.1233 | 0.0301 | 0.035 | 0.0406 | 0.0481 | 0.0556 | 0.0648 | 0.0763 | 0.0893 | 0.104 | 0.122
x2 = 0.1942 | 0.0368 | 0.0428 | 0.0497 | 0.0588 | 0.0681 | 0.0794 | 0.0937 | 0.11 | 0.128 | 0.15
x2 = 0.2727 | 0.0479 | 0.0557 | 0.0648 | 0.0762 | 0.0886 | 0.103 | 0.122 | 0.142 | 0.167 | 0.196
x2 = 0.3599 | 0.0644 | 0.0748 | 0.087 | 0.102 | 0.119 | 0.138 | 0.163 | 0.19 | 0.223 | 0.262
x2 = 0.4576 | 0.0845 | 0.0982 | 0.115 | 0.134 | 0.157 | 0.183 | 0.216 | 0.252 | 0.296 | 0.349
x2 = 0.5675 | 0.111 | 0.128 | 0.15 | 0.175 | 0.205 | 0.238 | 0.282 | 0.329 | 0.387 | 0.455
x2 = 0.6923 | 0.131 | 0.153 | 0.179 | 0.209 | 0.248 | 0.289 | 0.343 | 0.4 | 0.473 | 0.559
x2 = 0.835 | 0.144 | 0.167 | 0.201 | 0.239 | 0.286 | 0.34 | 0.399 | 0.461 | 0.542 | 0.644

NCCS(=O)(=O)O + O + CC#N
solubility (g/100 g solution)
Settings | 298.15 K | 303.15 K | 308.15 K | 313.15 K | 318.15 K
x2 = 0.6949 | 0.528 | 0.562 | 0.597 | 0.644 | 0.864
x2 = 0.7736 | 1.15 | 1.28 | 1.37 | 1.54 | 1.75
x2 = 0.8417 | 2.09 | 2.47 | 2.66 | 2.99 | 3.69
x2 = 0.9011 | 3.76 | 4.25 | 4.87 | 6.01 | 7.16
x2 = 0.9535 | 6.1 | 7.22 | 8.46 | 9.89 | 11.6

O=C(O)C1CC(O)CN1 (centres undefined) + O + CC#N
solubility (g/100 g solution)
Settings | x2 = 0.1 | x2 = 0.2 | x2 = 0.3 | x2 = 0.4 | x2 = 0.5 | x2 = 0.6 | x2 = 0.7 | x2 = 0.8 | x2 = 0.9
283.15 K | 0.0362 | 0.0575 | 0.0864 | 0.185 | – | 0.635 | 1.45 | 3.22 | 9.59
293.15 K | 0.0605 | 0.101 | 0.188 | 0.517 | 1.13 | 1.82 | 2.8 | 4.82 | 12.7
303.15 K | 0.0971 | 0.136 | 0.287 | 0.813 | 1.6 | 2.88 | 4.48 | 7.02 | 15.9
313.15 K | 0.128 | 0.203 | 0.398 | 1.08 | 2.25 | 3.66 | 6.08 | 11.3 | 21.4
323.15 K | 0.187 | 0.327 | 0.778 | 1.71 | 3.12 | 5.6 | 10.2 | 16.7 | 24.8
